Assay results: ChEMBL document CHEMBL1141542, “Synthesis and evaluation of 3- and 7-substituted geranylgeranyl pyrophosphate analogs” (Bioorg Med Chem Lett, 2008)

Legend:
[1] = Inhibition of FTase
[2] = Inhibition of GGTase 1
[3] = Activity of FTase
[4] = Activity of GGTase 1

SMILES	IC50 [1] [nM]	IC50 [2] [nM]	Km [3] [µM]	Km [4] [µM]
C=CC/C(=C\COP(=O)(O)OP(=O)(O)O)CC/C=C(\C)CCC=C(C)C	189			
C=C/C(=C\CC/C(C)=C/COP(=O)(O)OP(=O)(O)O)CC/C=C(\C)CCC=C(C)C	> 5000	1000		
C=CC/C(=C\COP(=O)(O)OP(=O)(O)O)CC/C=C(\C)CC/C=C(\C)CCC=C(C)C	453	846		
C=CC/C(=C\CC/C(C)=C/COP(=O)(O)OP(=O)(O)O)CC/C=C(\C)CCC=C(C)C	> 5000			0.027

The next lines start with the values.

IC50 [1] [nM]	IC50 [2] [nM]	Km [3] [µM]	Km [4] [µM]	SMILES
		0.156		C=C/C(=C\COP(=O)(O)OP(=O)(O)O)CC/C=C(\C)CCC=C(C)C
715			1.75	C=C/C(=C\COP(=O)(O)OP(=O)(O)O)CC/C=C(\C)CC/C=C(\C)CCC=C(C)C
